Target: WDR5 (Homo sapiens (Human), UniProt P61964)
Assay: Surface Plasmon Resonance (SPR) assay, KD and residence time
Assay type: binding
Conditions: surface plasmon resonance (SPR); read-out: WDR5 binding affinity (KD)

SMILES | Kd
C[C@@H]1CN(c2cc(F)c(-c3ccc(F)c(C(N)=O)c3)cc2NC(=O)c2cn(C)c(=O)cc2C(F)F)C[C@H](C)N1C [Example 591, N-[5-(3-carbamoyl-4-fluorophenyl)-4-fluoro-2-[(3R,5S)-3,4,5-trimethylpiperazin-1-yl]phenyl]-4-(difluoromethyl)-1-methyl-6-oxopyridine-3-carboxamide] | 15.5 nM
C[C@@H]1CN(c2cc(F)c(-c3ccc(C(N)=O)c(F)c3)cc2NC(=O)c2cn(C)c(=O)cc2C(F)F)C[C@H](C)N1C [Example 592, N-[5-(4-carbamoyl-3-fluorophenyl)-4-fluoro-2-[(3R,5S)-3,4,5-trimethylpiperazin-1-yl]phenyl]-4-(difluoromethyl)-1-methyl-6-oxopyridine-3-carboxamide] | 6.8 nM
CC(C)OC(=O)N1CCC=C(c2cc(NC(=O)c3c[nH]c(=O)cc3C(F)(F)F)c(N3C[C@@H](C)N(C)[C@@H](C)C3)cc2F)C1 [Example 601, propan-2-yl 5-[2-fluoro-5-[[6-oxo-4-(trifluoromethyl)-1H-pyridine-3-carbonyl]amino]-4-[(3R,5S)-3,4,5-trimethylpiperazin-1-yl]phenyl]-3,6-dihydro-2H-pyridine-1-carboxylate] | 0.271 nM
CC(C)OC(=O)N1CC=C(c2cc(NC(=O)c3c[nH]c(=O)cc3C(F)(F)F)c(N3C[C@@H](C)N(C)[C@@H](C)C3)cc2F)CC1 [Example 602, propan-2-yl 4-[2-fluoro-5-[[6-oxo-4-(trifluoromethyl)-1H-pyridine-3-carbonyl]amino]-4-[(3R,5S)-3,4,5-trimethylpiperazin-1-yl]phenyl]-3,6-dihydro-2H-pyridine-1-carboxylate] | 0.475 nM
CNC(=O)c1ccc(-c2cc(NC(=O)c3c[nH]c(=O)cc3C(F)(F)F)c(N3C[C@@H](C)N(C)[C@@H](C)C3)cc2F)cc1F [Example 603, N-[4-fluoro-5-[3-fluoro-4-(methylcarbamoyl)phenyl]-2-[(3R,5S)-3,4,5-trimethylpiperazin-1-yl]phenyl]-6-oxo-4-(trifluoromethyl)-1H-pyridine-3-carboxamide] | 1.09 nM
CNC(=O)c1cc(-c2cc(NC(=O)c3c[nH]c(=O)cc3C(F)(F)F)c(N3C[C@@H](C)N(C)[C@@H](C)C3)cc2F)ccc1F [Example 604, N-[4-fluoro-5-[4-fluoro-3-(methylcarbamoyl)phenyl]-2-[(3R,5S)-3,4,5-trimethylpiperazin-1-yl]phenyl]-6-oxo-4-(trifluoromethyl)-1H-pyridine-3-carboxamide] | 1.71 nM
CNC(=O)c1ccc(-c2cc(NC(=O)c3c[nH]c(=O)cc3C(F)F)c(N3C[C@@H](C)N(C)[C@@H](C)C3)cc2F)cc1F [Example 605, 4-(difluoromethyl)-N-[4-fluoro-5-[3-fluoro-4-(methylcarbamoyl)phenyl]-2-[(3R,5S)-3,4,5-trimethylpiperazin-1-yl]phenyl]-6-oxo-1H-pyridine-3-carboxamide] | 0.6 nM
CNC(=O)c1cc(-c2cc(NC(=O)c3c[nH]c(=O)cc3C(F)F)c(N3C[C@@H](C)N(C)[C@@H](C)C3)cc2F)ccc1F [Example 606, 4-(difluoromethyl)-N-[4-fluoro-5-[4-fluoro-3-(methylcarbamoyl)phenyl]-2-[(3R,5S)-3,4,5-trimethylpiperazin-1-yl]phenyl]-6-oxo-1H-pyridine-3-carboxamide] | 1.86 nM
C[C@@H]1CN(c2cc(F)c(C3=CCN(C(=O)N4CCCC4)C3)cc2NC(=O)c2c[nH]c(=O)cc2C(F)F)C[C@H](C)N1C [Example 612, 4-(Difluoromethyl)-N-(4-fluoro-5-(1-(pyrrolidine-1-carbonyl)-2,5-dihydro-1H-pyrrol-3-yl)-2-((3S,5R)-3,4,5-trimethylpiperazin-1-yl)phenyl)-6-oxo-1,6-dihydropyridine-3-carboxamide] | 1.94 nM

Reference: patent publication US11319299B2, “Substituted carboxamides as inhibitors of WDR5 protein-protein binding” (PROPELLON THERAPEUTICS INC., priority 2016, dated 2022)
